Results taken from patent US10030047B2 (Hoffmann-La Roche Inc., priority 2015, dated 2018).
Values after ≈ are worked out from the molar mass of the structure shown.

tested on: A. baumannii strain ATCC19606; assay: Minimum inhibitory concentration (MIC) determination, microbroth dilution (CLSI); type: cell-based; conditions: Acinetobacter baumannii; A. baumannii ATCC19606; CAMHB; read after 20 hours; >=80% growth inhibition; read-out: ATCC19606 MIC
Outline: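 After 20 h at 35±2 °C, MIC taken visually and by OD 600 nm as the lowest concentration giving ≥80% growth inhibition. Bacteria (~5×10^5 CFU/ml) were tested per CLSI microbroth dilution against twofold serial compound dilutions in cation-adjusted Mueller Hinton broth.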

Compared with CN1C(=O)[C@H](CCCCN)NC(=O)[C@H](CCCN)NCc2cccnc2Sc2c(Cl)cc(N3CCCC3)cc2CNC(=O)[C@@H]1Cc1c[nH]c2ccccc12 [Example 130, (11S,14S,17S)-14-(4-Amino-butyl)-11-(3-amino-propyl)-25-chloro-17-(1H-indol-3-ylmethyl)-16-methyl-23-pyrrolidin-1-yl-2-thia-4,10,13,16,19-pentaaza-tricyclo[19.4.0.0*3,8*]pentacosa-1(25),3(8),4,6,21,23-hexaene-12,15,18-trione], CN1C(=O)[C@H](CCCCN)NC(=O)[C@H](CCC(N)=O)NCc2cccnc2Sc2c(Cl)cc(N3CCOCC3)cc2CNC(=O)[C@@H]1Cc1c[nH]c2ccccc12 [Example 137, 3-[(11S,14S,17S)-14-(4-Amino-butyl)-25-chloro-17-(1H-indol-3-ylmethyl)-16-methyl-23-morpholin-4-yl-12,15,18-trioxo-2-thia-4,10,13,16,19-pentaaza-tricyclo[19.4.0.0*3,8*]pentacosa-1(25),3(8),4,6,21,23-hexaen-11-yl]-propionamide] is 32-fold higher in MIC: 1 µg/mL (≈ 1.29 µM) for the first, 32 µg/mL (≈ 39.8 µM) for the second.

Compared with CN1C(=O)[C@H](CCCCN)NC(=O)[C@H](CCCN)NCc2cccnc2Sc2c(Cl)ccc(C(F)(F)F)c2CNC(=O)[C@@H]1Cc1c[nH]c2ccc(F)cc12 [Example 131, (11S,14S,17S)-14-(4-Amino-butyl)-11-(3-amino-propyl)-25-chloro-17-(5-fluoro-1H-indol-3-ylmethyl)-16-methyl-22-trifluoromethyl-2-thia-4,10,13,16,19-pentaaza-tricyclo[19.4.0.0*3,8*]pentacosa-1(25),3,5,7,21,23-hexaene-12,15,18-trione], CN1C(=O)[C@H](CCCCN)NC(=O)[C@H](CCCN)NCc2cccnc2Sc2c(Cl)ccc(N3CCOCC3)c2CNC(=O)[C@@H]1Cc1c[nH]c2ccccc12 [Example 147, (11S,14S,17S)-14-(4-Amino-butyl)-11-(3-amino-propyl)-25-chloro-17-(1H-indol-3-ylmethyl)-16-methyl-22-morpholin-4-yl-2-thia-4,10,13,16,19-pentaaza-tricyclo[19.4.0.0*3,8*]pentacosa-1(25),3(8),4,6,21,23-hexaene-12,15,18-trione] is 2.1-fold lower in MIC: 0.25 µg/mL (≈ 0.316 µM) for the first, 0.12 µg/mL (≈ 0.152 µM) for the second.

Going from COc1cc(-c2cc(Cl)c3c(c2)CNC(=O)[C@H](Cc2c[nH]c4ccccc24)N(C)C(=O)[C@H](CCCCN)NC(=O)[C@H](CCC(N)=O)NCc2cccnc2S3)ccn1 [Example 134, 3-[(11S,14S,17S)-14-(4-Amino-butyl)-25-chloro-17-(1H-indol-3-ylmethyl)-23-(2-methoxy-pyridin-4-yl)-16-methyl-12,15,18-trioxo-2-thia-4,10,13,16,19-pentaaza-tricyclo[19.4.0.0*3,8*]pentacosa-1 (25),3(8),4,6,21,23 exaen-11-yl]-propionamde] to Cc1cc(-c2cc(Cl)c3c(c2)CNC(=O)[C@H](Cc2c[nH]c4ccccc24)N(C)C(=O)[C@H](CCCCN)NC(=O)[C@H](CCC(N)=O)NCc2cccnc2S3)ccn1 [Example 145, 3-[(11S,14S,17S)-14-(4-Amino-butyl)-25-chloro-17-(1H-indol-3-ylmethyl)-16-methyl-23-(2-methyl-pyridin-4-yl)-12,15,18-trioxo-2-thia-4,10,13,16,19-pentaaza-tricyclo[19.4.0.0*3,8*]pentacosa-1(25),3(8),4,6,21,23-hexaen-1l-yl]-propionamide], the MIC rises from 2 µg/mL (≈ 2.42 µM) to 4 µg/mL (≈ 4.94 µM) (2-fold).

Going from CN1C(=O)[C@H](CCCCN)NC(=O)[C@H](CCCN)NCc2cccnc2Sc2c(Cl)cc(C3=CCOCC3)cc2CNC(=O)[C@@H]1Cc1c[nH]c2ccccc12 [Example 138, (11S,14S,17S)-14-(4-Amino-butyl)-11-(3-amino-propyl)-25-chloro-23-(3,6-dihydro-2H-pyran-4-yl)-17-(1H-indol-3-ylmethyl)-16-methyl-2-thia-4,10,13,16,19-pentaaza-tricyclo[19.4.0.0*3,8*]pentacosa-1(25),3(8),4,6,21,23-hexaene-12,15,18-trione] to CN1C(=O)[C@H](CCCCN)NC(=O)[C@H](CCCN)NCc2cccnc2Sc2c(Cl)cc(-c3ccnnc3)cc2CNC(=O)[C@@H]1Cc1c[nH]c2ccccc12 [Example 148, (11S,14S,17S)-14-(4-Amino-butyl)-11-(3-amino-propyl)-25-chloro-17-(1H-indol-3-ylmethyl)-16-methyl-23-pyridazin-4-yl-2-thia-4,10,13,16,19-pentaaza-tricyclo[19.4.0.0*3,8*]pentacosa-1(25),3(8),4,6,21,23-hexaene-12,15,18-trione], the MIC rises from 0.5 µg/mL (≈ 0.635 µM) to 8 µg/mL (≈ 10.2 µM) (16-fold).

First: CN1C(=O)[C@H](CCCCN)NC(=O)[C@H](CCCNC(=O)OCc2ccccc2)NCc2cccnc2Sc2c(Cl)ccc(Cl)c2CNC(=O)[C@@H]1Cc1c[nH]c2ccccc12 [Example 139, {3-[(11S,14S,17S)-14-(4-Amino-butyl)-22,25-dichloro-17-(1H-indol-3-ylmethyl)-16-methyl-12,15,18-trioxo-2-thia-4,10,13,16,19-pentaaza-tricyclo[19.4.0.0*3,8*]pentacosa-1(25),3(8),4,6,21,23-hexaen-11-yl]-propyarbamic acid benzyl ester]
Second: CN1C(=O)[C@H](CCCCN)NC(=O)[C@H](CCCN)NCc2cccnc2Sc2c(Cl)cc(-c3ccccc3)cc2CNC(=O)[C@@H]1Cc1c[nH]c2ccccc12 [Example 149]
The MIC of the first is 2-fold higher: 2 µg/mL (≈ 2.29 µM) for the first, 1 µg/mL (≈ 1.28 µM) for the second.

Compared with CN1C(=O)[C@H](CCCCN)NC(=O)[C@H](CCCN)NCc2ccccc2Sc2c(Cl)cc(-c3ccn(C)n3)cc2CNC(=O)[C@@H]1Cc1c[nH]c2ccccc12 [Example 144, (12S,15S,18S)-15-(4-Amino-butyl)-18-(3-amino-propyl)-4-chloro-12-(1H-indol-3-ylmethyl)-13-methyl-6-(1-methyl-1H-pyrazol-3-yl)-2-thia-10,13,16,19-tetraaza-tricyclo[19.4.0.0*3,8*]pentacosa-1(25),3,5,7,21,23-hexaene-11,14,17-trione], CN1C(=O)[C@H](CCCCN)NC(=O)[C@H](CCCN)NCc2ccccc2Sc2c(Cl)cc(-c3cn(C)cn3)cc2CNC(=O)[C@@H]1Cc1c[nH]c2ccccc12 [Example 154, (12S,15S,18S)-15-(4-Amino-butyl)-18-(3-amino-propyl)-4-chloro-12-(1H-indol-3-ylmethyl)-13-methyl-6-(1-methyl-1H-imidazol-4-yl)-2-thia-10,13,16,19-tetraaza-tricyclo[19.4.0.0*3,8*]pentacosa-1(25),3,5,7,21,23-hexaene-11,14,17-trione] is 2-fold higher in MIC: 1 µg/mL (≈ 1.27 µM) for the first, 2 µg/mL (≈ 2.55 µM) for the second.

CN1C(=O)[C@H](CCCCN)NC(=O)[C@H](CCCN)NCc2cccnc2Sc2c(Cl)cc(-c3cnccn3)cc2CNC(=O)[C@@H]1Cc1c[nH]c2ccccc12 [Example 146, (11S,14S,17S)-14-(4-Amino-butyl)-11-(3-amino-propyl)-25-chloro-17-(1H-indol-3-ylmethyl)-16-methyl-23-pyrazin-2-yl-2-thia-4,10,13,16,19-pentaaza-tricyclo[19.4.0.0*3,8*]pentacosa-1(25),3(8),4,6,21,23-hexaene-12,15,18-trione] and CN1C(=O)[C@H](CCCCN)NC(=O)[C@H](CCCN)NCc2cccnc2Sc2c(Cl)cc(-c3ccccn3)cc2CNC(=O)[C@@H]1Cc1c[nH]c2ccccc12 [Example 150, (11S,14S,17S)-14-(4-Amino-butyl)-11-(3-amino-propyl)-25-chloro-17-(1H-indol-3-ylmethyl)-16-methyl-23-pyridin-2-yl-2-thia-4,10,13,16,19-pentaaza-tricyclo[19.4.0.0*3,8*]pentacosa-1(25),3(8),4,6,21,23-hexaene-12,15-18-trione] are the same in MIC: 1 µg/mL (≈ 1.28 µM) for the first, 1 µg/mL (≈ 1.28 µM) for the second.
